Tests used:
[1] = biological target: T1, AMPK-s5 (γ subunit- D156A) (Rattus norvegicus, UniProt P54645+P80385, D156A); test: SPR analysis, AMPK mutant s5; type: binding
T1 construct: His (N); made in house
Experimental: Mammalian AMPK subunits (His-α1, β1, and γ1) were cloned into a pET-3d vector, and protein expression and purification were similar to the literature.
SPR analysis was performed with a Biacore T200 instrument (GE Healthcare). Firstly, the purred His-tagged AMPK containing α1β1γ1 protein was captured onto an activated carboxymethylated 5 (CM5) chip using amine coupling to levels ranging from 4000 RU to 6000 RU. Secondly, GENI was dissolved in PBS-P buffer solution (0.05% (v/v) Tween 20 and PBS), and the concentration of GENI was 64 μM. Thirdly, the solution of GENI was diluted to 32 μM, 16 μM, 8 μM, 4 μM, 2 μM, 1 μM and 0.5 μM with PBS-P buffer solution. The sample was filtered by pumping through a […] membrane. A gradient concentration of GENI was injected at a flow rate of 30 μL/min in a running buffer (0.05% (v/v) Tween 20 and PBS). The data were analyzed with Biacore evaluation software (T200 version 2.0) and fitted to the 1:1 Langmuir binding model, and the kinetic parameters were derived.
The non-covalent interaction between drugs and proteins is an important way to exert drug efficacy, and its mode of action and binding affinity usually determine the utilization and biological activity of drugs. AMPK is a heterotrimer complex consisting of an α subunit containing the kinase domain and two regulatory subunits (β- and γ-). […]

PC12 cells = test: MDA content assay in PC12 cells; type: cell-based; conditions: GENI 3 or 10 μM 24 h, 0.8 mM H2O2 1 h
Experimental: To determine ROS levels in PC12 cells, we seeded 5 × 10^4 PC12 cells in each well of a 24-well plate. Cells were treated with RES (10 μM) or GENI (1, 3, and 10 μM) for 24 h, followed by 0.8 mM H2O2 for 1 h. DCFH-DA (2,7-dichlorodihydrofluorescein diacetate, final concentration, 10 μM) was then added to each well and incubated for 30 min. Cells were washed with PBS to remove extracellular DCFH-DA, and intercellular ROS was detected by using a SpectraMax M3 multimode microplate reader (Molecular Devices Corporation, San Jose, CA, USA) at an excitation wavelength of 488 nm and an emission wavelength of 525 nm. Meanwhile, DCF in PC12 cells was observed using a fluorescence microscope (HCS, Thermo Fisher, Science, Waltham, MA, USA). To detect malondialdehyde (MDA) content and total SOD enzymatic activities in PC12 cells, we seeded 2 × 10^6 PC12 cells in 60 mm dishes containing 5 mL of DMEM and cultured the cells for 24 h. PC12 cells were treated with RES (10 μM) or GENI (3 or 10 μM) for 24 h and then treated with 0.8 mM H2O2 for 1 h to determine the MDA content and total superoxide dismutase (SOD) activities. Cells were lysed and centrifuged. […] MDA quantification and total SOD activities were determined using MDA and SOD enzyme activity assay kits (Nanjing Jiancheng Bioengineering Institute, Nanjing, China) following the manufacturer’s instructions.

natural aging AD mice = test: Behaviour tests in naturally aged mice with AD; type: in vivo
Experimental: Each group had 10 mice. GENI was dissolved in ultrapure water and administered by gavage, whereas Dor was dissolved in normal saline. The pH was adjusted to pH 5 with 0.1 M hydrochloric acid to the clarified solution and administered by intraperitoneal injection. The dosing experiment also lasted 10 weeks. Animal behavioral experiments and sampling at the end of the animal experiment were performed as described above.
The Y-maze is mainly used to study the spatial working memory ability of rodents. The Y-maze consisted of three equal-length arms (50 cm × 18 cm × 35 cm), and the angle between each two arms was 120 degrees. The mice were placed at the end of any arm of the Y-maze and allowed to explore freely for 8 min. The behavioral changes including the total number of entries and alternation (successively entering all three arms of the Y-maze once in turn) were recorded. Percentage altercation = alternation/(entries-2) × 100%. The Y-maze could effectively reflect the ability of animals to recognize and remember novel environments.
NOR was used to detect memory in rodents. We prepared a 40 × 40 × 40 cm square box, camera equipment, and behavioral analysis software. We chose three objects A, B, and C, where objects A and B were exactly the same, and object C was very different from objects A and B. After the start of the experiment, the mice were allowed to acclimate freely in the experimental apparatus for 10 min. Objects A and B were placed into the box, and the mice were allowed to explore for 5 min. We then recorded the exploration time and times. After 1 h, A and C or B and C were placed into the box. After letting the mice explore for 5 min, we recorded the exploration time of the original object and the new object. Discrimination index = exploration time of new objects/total exploration time × 100%.
The MWM installation consisted of a circular pool (120 cm in diameter and 50 cm in height), camera equipment, and a computer analysis system. In the first stage, the platform position was fixed, and mice were placed into the pool from any three of the four origins on the pool facing away from the pool wall. The time when it took for the mouse to find the platform within 120 s, called escape latency, was recorded. The training period lasted 4 days. The escape latency of the mice was recorded daily, and the average value was used as an index to evaluate the ability of learning and memory. On the 5th day, the platform was evacuated by the experimenter. The mice were placed against the platform into the water from any water entry point, and they were allowed to swim freely for 60 s. We then recorded the number of times that they crossed the platform.

[2] = mouse, in vivo
Source text: Each group comprised 10 mice. […] Dosing lasted for 10 weeks. […] The mice were sacrificed after 10 weeks of administration.
At the end of the animal experiment, the epididymis fat, heart, liver, spleen, and kidney of the mice were removed for weighing analysis.

T1 sequence (P54645 13-559 limits assumed): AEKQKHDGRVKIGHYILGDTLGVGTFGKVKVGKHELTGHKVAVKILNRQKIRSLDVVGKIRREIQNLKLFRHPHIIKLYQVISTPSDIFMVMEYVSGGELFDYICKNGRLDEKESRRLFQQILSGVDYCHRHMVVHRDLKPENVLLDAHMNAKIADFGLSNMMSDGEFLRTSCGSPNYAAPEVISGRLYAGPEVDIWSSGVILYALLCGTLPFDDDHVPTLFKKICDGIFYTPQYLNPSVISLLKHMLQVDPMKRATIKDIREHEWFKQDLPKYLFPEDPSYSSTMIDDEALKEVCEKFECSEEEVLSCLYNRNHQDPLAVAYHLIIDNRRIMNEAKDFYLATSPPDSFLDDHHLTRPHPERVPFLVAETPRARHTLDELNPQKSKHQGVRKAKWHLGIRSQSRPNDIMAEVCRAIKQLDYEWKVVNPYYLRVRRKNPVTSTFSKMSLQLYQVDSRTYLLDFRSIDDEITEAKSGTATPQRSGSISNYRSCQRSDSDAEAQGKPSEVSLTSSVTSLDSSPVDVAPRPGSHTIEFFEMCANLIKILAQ
T1 sequence (P80386 whole entry partner): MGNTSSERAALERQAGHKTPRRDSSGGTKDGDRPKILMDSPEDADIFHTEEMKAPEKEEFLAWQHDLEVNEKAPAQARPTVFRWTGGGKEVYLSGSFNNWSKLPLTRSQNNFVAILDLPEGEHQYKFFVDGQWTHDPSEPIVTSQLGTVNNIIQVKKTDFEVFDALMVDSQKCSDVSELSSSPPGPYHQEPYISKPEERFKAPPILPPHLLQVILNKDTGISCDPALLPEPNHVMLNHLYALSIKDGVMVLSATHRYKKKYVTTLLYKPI
T1 sequence (P80385 whole entry D156A): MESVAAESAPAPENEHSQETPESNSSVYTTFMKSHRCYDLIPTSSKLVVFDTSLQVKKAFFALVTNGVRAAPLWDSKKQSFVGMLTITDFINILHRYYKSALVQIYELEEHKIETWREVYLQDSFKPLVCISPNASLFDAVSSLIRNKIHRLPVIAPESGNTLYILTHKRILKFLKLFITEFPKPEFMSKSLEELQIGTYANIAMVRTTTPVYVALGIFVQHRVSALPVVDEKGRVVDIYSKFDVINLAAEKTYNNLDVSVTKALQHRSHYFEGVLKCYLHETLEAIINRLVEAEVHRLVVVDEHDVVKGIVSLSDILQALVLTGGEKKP

With CC(C)CCOC(=O)C1=CO[C@@H](O[C@@H]2O[C@H](CO)[C@@H](O)[C@H](O)[C@H]2O)C2C(CO)=CCC12 (stereo partly shown) [GENI, Geniposidic 4-isoamyl ester] the kon ([1]; SPR, association rate, read-out: Ka) was 2140 M⁻¹ s⁻¹, the “dose-dependent relationship in SPR” value ([1]; point mutation of D156) was “dose-dependent relationship was lost” and the “H2O2-induced increase in MDA” value (PC12 cells) was “significantly reduce”. The “escape latency, first 4 days of the training phase, water maze test” value (natural aging AD mice; GENI 25 mg/kg) was “significantly reduce”, the “number of crossing platforms, fifth day, water maze test” value (natural aging AD mice; GENI 25 mg/kg) was “increase” and the “cognitive function (alternating arm entry rate, novel object recognition index) in Y maze and NOR tests” value (natural aging AD mice; GENI 25 mg/kg intragastrically once a day) was “improvement”. The “myocardial hypertrophy and toxic side effects” value [2] was “did not find”.
